For experiment [1], the system named is Aptamer 21. The experiment in a line: Biotin-photoaffinity probe cross-linking and streptavidin bead pull-down gel assay. Format: binding. Particulars: Aptamer 21 compared with Aptamer 21-E.
In experiment [2] the test system is Aptamer 21. The experiment is described as follows: Capture of Aptamer 21 from a defined mixture of RNAs. Format: binding. Here is the method:
A sample of folded RNA was prepared containing 1 μM each of Myc HP PA, Aptamer 21, FMN, MYC_3WJ-HP_N3G, and PreQ1 RNAs in folding buffer (20 mM TrisHCl pH 8, 100 mM KCl, 3 mM MgCl2). A 95 μL sample of this solution was added to a 5 μL aliquot of 0.2 mM ARK-670 (probe) or ARK-139 (control) in DMSO. The reaction was incubated for 30 min at 37° C., irradiated with long wave UV light (˜365 nm) for 30 min in a UV crosslinker (Fisher Scientific), and then cooled on ice. The excess probe and buffer was then removed by passing the sample through an Illustra MicroSpin G-25 spin column (GE Healthcare) according to the manufacturer's protocol.
For each treatment, a 75 μL aliquot of the crosslinked RNA was mixed with 0.75 μL of 10% Tween-20 and 0.45 μL of 0.5 M EDTA pH 8 solution. A 50 μL aliquot of MyOne Streptavidin C1 Dynabead slurry (Thermo) was captured on a magnet, washed twice with 50 μL of 1× bind/wash buffer (20 mM TrisHCl pH 7, 100 mM KCl, 0.1% Tween-20), and then resuspended in 50 μL of the crosslinked RNA sample. The bead suspension was rotated at room temperature for 60 min and then washed twice with 100 μL of 1× bind/wash solution. […]
To remove excess primer, the sample was mixed with 4.5 μL of ExoSAP-IT, incubated at 37° C. for 15 min, and then quenched with 1 μL of 0.5 M EDTA pH 8. […] The concentration was determined by absorbance at 260 nm. […]

In the case of `COC(=O)C1=C(COCc2cn(CCOCCOCCNC(=O)[C@H](CCCCNC(=O)c3ccc(N=[N+]=[N-])cc3)NC(=O)CCCC[C@@H]3SC[C@@H]4NC(=O)N[C@@H]43)nn2)NC(c2ccncc2)=NC1c1ccc(F)cc1Cl` (stereo partly drawn) [ARK-670], the “pull-down of RNA on streptavidin beads after cross-linking” value in the experiment on Aptamer 21 [1] is listed as “Only the Aptamer 21 RNA showed significant pull-down”. Moreover, the “RT pausing signal from probe adducts” value in the experiment with Aptamer 21 [2] (Aptamer 21, Aptamer 21-E, or mixture of Aptamer 21 and four other RNAs) is given as “specific for Aptamer 21”. Further, the “enrichment of RNAs after cross-linking, avidin bead enrichment and sequencing” value in the experiment with Aptamer 21 [2] (mixture of Aptamer 21 and four other RNAs) is “only Aptamer 21 was enriched”.

The values are drawn from patent publication US12503455B2, “Nucleic acid-binding photoprobes and uses thereof” (Arrakis Therapeutics, Inc., priority 2017, dated 2025).
